Values quoted from earlier work in patent publication US20070122482A1, “Method for preparing modified release pharmaceutical compositions” (priority 2003, published 2007).

Key:
[1] = for Solubility In Water: Table 2, Poorly-Soluble Drugs with Low Bioavailability

Row | SMILES | Solubility In Water [1] | Bioavailability (in vivo) | Solubility in water ([1]; Table 1, Poorly-Soluble Drug Candidates) | Bioavailability (in words) (Table 2)
1 | CC(=O)OC[C@H]1O[C@@H]([S-])[C@H](OC(C)=O)[C@@H](OC(C)=O)[C@@H]1OC(C)=O.CCP(CC)CC.[Au+] [Auranofin] | Slightly soluble | Low (15-25%) |  | 
2 | COc1ccc(CCN2CCC(Nc3nc4ccccc4n3Cc3ccc(F)cc3)CC2)cc1 [Astemizole] | Insoluble |  | Insoluble | Low-moderate
